Measured values reported in patent US6087493A, “Porphyrin compounds as telomerase inhibitors” (Regents of the University of Texas System, priority 1998, dated 2000).
Like-named read-outs stand apart in the source and are kept apart here. Blank lines part the entries; values can stand above or below the molecule they belong to.

Target: human telomerase (Homo sapiens, UniProt O14746)
Test: Telomerase inhibition, primer extension assay in HeLa cell extract
Type: biochemical
Conditions: for inhibition at 25 µM: read-out: % Inhibition of telomerase
[1] = Table 15, concentration fixed at 25 μM

Sequence of human telomerase (O14746 whole entry): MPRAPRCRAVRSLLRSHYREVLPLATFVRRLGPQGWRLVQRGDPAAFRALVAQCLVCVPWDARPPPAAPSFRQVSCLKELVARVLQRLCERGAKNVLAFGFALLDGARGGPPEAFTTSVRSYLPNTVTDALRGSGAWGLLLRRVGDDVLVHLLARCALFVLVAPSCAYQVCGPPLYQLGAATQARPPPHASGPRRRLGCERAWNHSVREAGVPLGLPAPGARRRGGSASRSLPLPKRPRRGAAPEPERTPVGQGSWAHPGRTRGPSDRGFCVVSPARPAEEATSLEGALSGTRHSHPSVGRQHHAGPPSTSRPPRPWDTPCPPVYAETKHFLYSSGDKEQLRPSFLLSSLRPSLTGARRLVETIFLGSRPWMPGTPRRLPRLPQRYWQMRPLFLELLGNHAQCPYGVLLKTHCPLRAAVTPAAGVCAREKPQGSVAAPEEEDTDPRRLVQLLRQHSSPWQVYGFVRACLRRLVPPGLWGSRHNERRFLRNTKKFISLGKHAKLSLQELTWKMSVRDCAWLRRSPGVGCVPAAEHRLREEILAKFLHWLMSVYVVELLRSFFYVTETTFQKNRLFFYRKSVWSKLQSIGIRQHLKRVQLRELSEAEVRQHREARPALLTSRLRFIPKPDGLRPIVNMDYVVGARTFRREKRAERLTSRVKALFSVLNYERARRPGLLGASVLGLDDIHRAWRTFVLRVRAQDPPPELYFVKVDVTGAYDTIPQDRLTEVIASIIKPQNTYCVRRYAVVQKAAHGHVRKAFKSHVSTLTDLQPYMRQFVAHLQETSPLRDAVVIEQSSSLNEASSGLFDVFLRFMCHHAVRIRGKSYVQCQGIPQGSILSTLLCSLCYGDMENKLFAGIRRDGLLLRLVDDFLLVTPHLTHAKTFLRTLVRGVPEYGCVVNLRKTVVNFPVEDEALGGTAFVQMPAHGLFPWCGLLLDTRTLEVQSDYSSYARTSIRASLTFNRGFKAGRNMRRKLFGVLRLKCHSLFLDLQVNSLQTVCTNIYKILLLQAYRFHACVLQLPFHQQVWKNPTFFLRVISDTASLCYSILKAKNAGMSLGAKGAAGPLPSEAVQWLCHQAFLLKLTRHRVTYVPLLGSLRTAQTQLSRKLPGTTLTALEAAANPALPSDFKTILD

Molecule: 5,10-di-(N-methyl-3-quinolyl)-15,20-di-(N-methyl-3-pyridyl)porphine chloride [Compound D12]
% Inhibition of telomerase (25 μM, Table 6): 80%

Molecule: 5,10-di-(N-methyl-4-pyridyl)-15,20-di-(3-nitrophenyl)porphine chloride [Compound D20]
telomerase inhibition in words: good activity
% Inhibition of telomerase (25 μM, Table 10): 70%

Molecule: Nc1ccc(-c2c3nc(c(-c4ccc(N)cc4)c4ccc([nH]4)c(-c4ccc(N)cc4)c4nc(c(-c5ccc(N)cc5)c5ccc2[nH]5)C=C4)C=C3)cc1 [Compound B1, Tetra-(4-aminophenyl)porphyrin]
inhibition at 25 µM (25 μM, Table 13): 50%

Molecule: Nc1cccc(-c2c3nc(c(-c4cccc(N)c4)c4ccc([nH]4)c(-c4cccc(N)c4)c4nc(c(-c5cccc(N)c5)c5ccc2[nH]5)C=C4)C=C3)c1 [Compound B2, Tetra-(3-aminophenyl)porphyrin]
inhibition at 25 µM (25 μM, Table 13): 15%

Molecule: Nc1ccccc1-c1c2nc(c(-c3ccccc3N)c3ccc([nH]3)c(-c3ccccc3N)c3nc(c(-c4ccccc4N)c4ccc1[nH]4)C=C3)C=C2 [Compound B3, Tetra-(2-aminophenyl)porphyrin]
inhibition at 25 µM (25 μM, Table 13): 3%

Molecule: C[n+]1ccc(-c2c3nc(c(-c4ccccc4)c4ccc([nH]4)c(-c4cc[n+](C)cc4)c4nc(c(-c5ccccc5)c5ccc2[nH]5)C=C4)C=C3)cc1 [Compound B4, 5,15-Diphenyl-10,20-di(N-methyl-4-pyridyl)porphyrin chloride]
inhibition at 25 µM (25 μM, Table 7): 30%
inhibition at 25 µM (25 μM, Table 13): 47%

Molecule: C[n+]1ccc(-c2c3nc(c(-c4ccccc4)c4ccc([nH]4)c(-c4ccccc4)c4nc(c(-c5cc[n+](C)cc5)c5ccc2[nH]5)C=C4)C=C3)cc1 [Compound B5, 5,10-Diphenyl-15,20-di(N-methyl-4-pyridyl)porphyrin chloride]
inhibition at 25 µM (25 μM, Table 7): 20%

Molecule: C[n+]1ccc(-c2c3nc(c(-c4cc[n+](C)cc4)c4ccc([nH]4)c(-c4cc[n+](C)cc4)c4nc(c(-c5ccccc5)c5ccc2[nH]5)C=C4)C=C3)cc1 [Compound B6, Tri(N-methyl-4-pyridyl)phenylporphyrin chloride]
inhibition at 25 µM (25 μM, Table 7): 15%

Molecule: C[n+]1ccccc1-c1c2nc(c(-c3cccc[n+]3C)c3ccc([nH]3)c(-c3cccc[n+]3C)c3nc(c(-c4cccc[n+]4C)c4ccc1[nH]4)C=C3)C=C2 [Compound B8, Tetra(N-methyl-2-pyridyl)porphyrin chloride]
inhibition at 25 µM (25 μM, Table 5): 0%

Molecule: C[n+]1cccc(-c2c3nc(c(-c4ccccc4)c4ccc([nH]4)c(-c4ccc[n+](C)c4)c4nc(c(-c5ccccc5)c5ccc2[nH]5)C=C4)C=C3)c1 [Compound B9, 5,15-Diphenyl-10,20-di(N-methyl-3-pyridyl)porphyrin chloride]
inhibition at 25 µM (25 μM, Table 7): 18%

Molecule: C[n+]1cccc(-c2c3nc(c(-c4ccc[n+](C)c4)c4ccc([nH]4)c(-c4ccc[n+](C)c4)c4nc(c(-c5ccccc5)c5ccc2[nH]5)C=C4)C=C3)c1 [Compound B10, Tri(N-methyl-3-pyridyl)phenylporphyrin chloride]
inhibition at 25 µM (25 μM, Table 7): 42%

Molecule: C[n+]1cccc(-c2c3nc(c(-c4ccc[n+](C)c4)c4ccc([nH]4)c(-c4ccccc4)c4nc(c(-c5ccccc5)c5ccc2[nH]5)C=C4)C=C3)c1 [Compound B22]
inhibition at 25 µM (25 μM, Table 7): 20%

Molecule: C[n+]1ccc(-c2c3nc(c(-c4ccccc4)c4ccc([nH]4)c(-c4ccccc4)c4nc(c(-c5ccccc5)c5ccc2[nH]5)C=C4)C=C3)cc1 [Compound B24]
inhibition at 25 µM (25 μM, Table 7): 34%

Molecule: C[n+]1cccc(-c2c3nc(c(-c4ccccc4)c4ccc([nH]4)c(-c4ccccc4)c4nc(c(-c5ccccc5)c5ccc2[nH]5)C=C4)C=C3)c1 [Compound B25]
inhibition at 25 µM (25 μM, Table 7): 35%

Molecule: C[n+]1ccccc1-c1c2nc(c(-c3ccccc3)c3ccc([nH]3)c(-c3ccccc3)c3nc(c(-c4ccccc4)c4ccc1[nH]4)C=C3)C=C2 [Compound B26]
inhibition at 25 µM (25 μM, Table 7): 0%

Molecule: Cc1ccc(-c2c3nc(c(-c4ccc(C)cc4)c4ccc([nH]4)c(-c4cc[n+](C)cc4)c4nc(c(-c5ccc(C)cc5)c5ccc2[nH]5)C=C4)C=C3)cc1 [Compound D9, 5-(N-methyl-4-pyridyl)-10,15,20-(4-methylphenyl)porphine chloride]
inhibition at 25 µM (25 μM, Table 7): 31%

Molecule: O=[N+]([O-])c1cc(-c2c3nc(cc4ccc([nH]4)c(-c4ccc(O)c([N+](=O)[O-])c4)c4nc(cc5ccc2[nH]5)C=C4)C=C3)ccc1O [Compound D14]
inhibition at 25 µM (25 μM, Table 9): 55%

Molecule: COc1ccc(-c2c3nc(c(-c4ccc(OC)c(O)c4)c4ccc([nH]4)c(-c4ccc(OC)c(O)c4)c4nc(c(-c5ccc(OC)c(O)c5)c5ccc2[nH]5)C=C4)C=C3)cc1O [Compound D17, 5,10,15,20-tetra-(4-methoxy-3-hydroxyphenyl)porphine]
inhibition at 25 µM (25 μM, Table 9): 50%

Molecule: C[N+](C)(C)c1ccc(-c2c3nc(c(-c4ccc([N+](C)(C)C)cc4)c4ccc([nH]4)c(-c4ccc([N+](C)(C)C)cc4)c4nc(c(-c5ccc([N+](C)(C)C)cc5)c5ccc2[nH]5)C=C4)C=C3)cc1 [TAP (B23), tetra(N,N,N-trimethyl-4-aminophenyl)porphyrin chloride]
inhibition at 25 µM (25 μM, Table 5): 6%
inhibition at 25 µM (25 μM, Table 13): 18%

Molecule: C[n+]1ccc(-c2c3nc(c(-c4cc[n+](C)cc4)c4ccc([n-]4)c(-c4cc[n+](C)cc4)c4nc(c(-c5cc[n+](C)cc5)c5ccc2[n-]5)C=C4)C=C3)cc1.[Cl-].[Cl-].[Cl-].[Cl-].[Zn+2] [TMPyP4 ZnII]
telomerase inhibition in words: better inhibitors
% Inhibition of telomerase (25 µM): 88%

Molecule: Copper(II)tetra-N-methyl-tetrazaphthalocyanine [Compound D7]
telomerase inhibition in words: only slight activity

Molecule: Copper(II)tetraaminophthalocyanine [Compound B14]
telomerase inhibition in words: active

Other lines, results leading:

inhibition at 25 µM [1]: 12%
Molecule: CCC1=C(CC)c2cc3[nH]c(cc4nc(cc5[nH]c(cc1n2)c(CC)c5CC)C(CC)=C4CC)c(CC)c3CC [Compound H1]

inhibition at 25 µM [1]: 0%
Molecule: CCC1=C(C)c2cc3[nH]c(cc4nc(cc5[nH]c(cc1n2)c(C)c5CC)C(C)=C4CC)c(CC)c3C [Compound H2]

inhibition at 25 µM [1]: 14%
Molecule: COC(=O)CCC1=C(C)c2cc3cc(C)c(cc4nc(cc5[nH]c(cc1n2)c(CCC(=O)OC)c5C)C(C)=C4)[nH]3 [Compound H7]

inhibition at 25 µM [1]: 24%
Molecule: COC(=O)CCC1=C(C)c2cc3[nH]c(cc4nc(cc5[nH]c(cc1n2)c(CCC(=O)OC)c5C)C(C)=C4S(=O)(=O)O)c(C)c3S(=O)(=O)O [Compound H8]

inhibition at 25 µM [1]: 14%
Molecule: COC(=O)CCC1=C(C)c2cc3[nH]c(cc4nc(cc5[nH]c(cc1n2)c(CCC(=O)OC)c5C)C(C)=C4C(C)=O)c(C)c3C(C)=O [Compound H9]

inhibition at 25 µM [1]: 0%
Molecule: COC(=O)CCC1=C(C)c2cc3[nH]c(cc4nc(cc5[nH]c(cc1n2)c(CCC(=O)OC)c5C)C(C)=C4Br)c(C)c3Br [Compound H10]

inhibition at 25 µM [1]: 20%
Molecule: COC(=O)CCC1=C(C)c2cc3[nH]c(cc4nc(cc5[nH]c(cc1n2)c(CCC(=O)OC)c5C)C(C)=C4C(C)O)c(C)c3C(C)O (stereo not drawn) [Compound H11]

inhibition at 25 µM [1]: 18%
Molecule: CC1=C(CCC(=O)O)c2cc3[nH]c(cc4nc(cc5[nH]c(cc1n2)c(C(C)O)c5C)C(C(C)O)=C4C)c(C)c3CCC(=O)O (stereo not drawn) [Compound H12]

inhibition at 25 µM [1]: 6%
Molecule: CCC1=C(C)c2cc3[nH]c(cc4nc(cc5[nH]c(cc1n2)c(C)c5CC)C(C)=C4CCC(=O)O)c(CCC(=O)O)c3C [Compound H15]

inhibition at 25 µM [1]: 0%
Molecule: CCC1=C(C)c2cc3[nH]c(cc4nc(cc5[nH]c(cc1n2)c(C)c5CC)C(C)=C4CCC(=O)OC)c(CCC(=O)OC)c3C [Compound H16]

inhibition at 25 µM [1]: 6%
Molecule: C=CC1=C(C)c2cc3[nH]c(cc4nc(cc5[nH]c(cc1n2)c(C)c5C=C)C(C)=C4CCC(=O)OC)c(CCC(=O)OC)c3C [Compound H17]

inhibition at 25 µM [1]: 17%
Molecule: C=CC1=C(C)c2cc3[nH]c(cc4nc(cc5[nH]c(cc1n2)c(C)c5C=C)C(C)=C4CCC(=O)O)c(CCC(=O)O)c3C [Compound H18]

% Inhibition of telomerase (Table 15, concentration fixed at 25 μM, 25 µM): 16%
Molecule: C=CC1=C(C)c2cc3[nH]c(cc4nc(cc5[nH]c(cc1n2)c(C)c5C=C)C(C)=C4CCC(=O)O)c(CCC(=O)O)c3C [Compound H19]

inhibition at 25 µM [1]: 33%
Molecule: COC(=O)CCC1=C(C)c2cc3[nH]c(cc4nc(cc5[nH]c(cc1n2)c(CCC(=O)OC)c5C)C(C)=C4CCC(=O)OC)c(CCC(=O)OC)c3C [Compound H21]

inhibition at 25 µM [1]: 19%
Molecule: COC(=O)CCC1=C(CC(=O)OC)c2cc3[nH]c(cc4nc(cc5[nH]c(cc1n2)c(CCC(=O)OC)c5CC(=O)OC)C(CC(=O)OC)=C4CCC(=O)OC)c(CCC(=O)OC)c3CC(=O)OC [Compound H22]

inhibition at 25 µM [1]: 5%
Molecule: CC1=C(CCC(=O)O)c2cc3[nH]c(cc4nc(cc5[nH]c(cc1n2)c(C)c5CCC(=O)O)C(CCC(=O)O)=C4C)c(C)c3CCC(=O)O [Compound H23]

inhibition at 25 µM [1]: 4%
Molecule: O=C(O)CCC1=C(CC(=O)O)c2cc3[nH]c(cc4nc(cc5[nH]c(cc1n2)c(CCC(=O)O)c5CC(=O)O)C(CC(=O)O)=C4CCC(=O)O)c(CCC(=O)O)c3CC(=O)O [Compound H24]

inhibition at 25 µM [1]: 18%
Molecule: CCOC(=O)CCc1c(C)c2cc3nc(cc4[nH]c(cc5nc(cc1[nH]2)C(C)=C5CC)c(C)c4CC)C(C)=C3C(=O)OCC [Compound H25]

inhibition at 25 µM [1]: 23%
Molecule: CCC1=C(C)c2cc3[nH]c(cc4nc(cc5[nH]c(cc1n2)c(C)c5CC)C(C)=C4CCCO)c(CCCO)c3C [Compound H26]

inhibition at 25 µM [1]: 24%
Molecule: C=CC1=C(C)c2cc3[nH]c(cc4nc(cc5[nH]c(cc1n2)c(C)c5C=C)C(C)=C4CCCO)c(CCCO)c3C [Compound H27]

inhibition at 25 µM [1]: 0%
Molecule: CCOC(=O)CCC1=C(C)c2cc3[nH]c(cc4nc(cc5[nH]c(cc1n2)c(CC)c5C)C(CC)=C4C)c(C)c3C [Compound H28]

inhibition at 25 µM [1]: 0%
Molecule: CC(=O)C1=C(C)c2cc3[nH]c(cc4nc(cc5[nH]c(cc1n2)c(C)c5C(C)=O)C(C)=C4CCC(=O)O)c(C)c3CCC(=O)O [Compound H29]

inhibition at 25 µM [1]: 23%
Molecule: COC(=O)CCC1=C(C)c2cc3[nH]c(cc4nc(cc5[nH]c(cc1n2)c(C)c5CCC(=O)OC)C(C)=C4C)c(C)c3C [Compound H30]

inhibition at 25 µM [1]: -10%
Molecule: CC1=C(C=O)c2cc3[nH]c(cc4nc(cc5[nH]c(cc1n2)c(CCC(=O)O)c5C)C(CCC(=O)O)=C4C)c(C=O)c3C [Compound H31]

inhibition at 25 µM [1]: 0%
Molecule: CCC1=C(C)c2cc3[nH]c(cc4nc(cc5[nH]c(cc1n2)c(C)c5CC)C(C)=C4)c(C)c3CC(=O)OC [Compound H32]
